# From ChEMBL document CHEMBL4813944 (Eur J Med Chem, 2021)
# The source made the active and inactive calls. No cut-off for these calls is given here.
# Tests used:
# [1] = Cytotoxicity against human SH-SY5Y cells assessed as cell viability at 10 uM measured after 24 hrs by calcein-AM staining based fluorescence analysis; conditions: read-out: Activity
# [2] = Cytotoxicity against human SH-SY5Y cells assessed as cell viability at 100 uM measured after 24 hrs by calcein-AM staining based fluorescence analysis; conditions: read-out: Activity
# SH-SY5Y [3] = assay: Inhibition of Salsolinol-induced oxidative stress in human SH-SY5Y cells assessed as superoxide radical formation at 1000 uM measured after 24 hrs by DHE staining based fluorescence spectrophotometry (reference value: 100%); format: functional; parameters: scale not given: the % may be the effect or the level left
# [4] = Inhibition of salsolinol-induced mitochondrial depolarization in human SH-SY5Y cells assessed as mitochondrial membrane potential at 1000 uM measured after 24 hrs by JC-1 staining based flow cytometry (reference value: 45.3 +/-2.09%); format: functional; parameters: scale not given: the % may be the effect or the level left
# SH-SY5Y [5] = assay: Inhibition of Salsolinol-induced oxidative stress in human SH-SY5Y cells assessed as reduction in superoxide radical formation at 1000 uM measured after 24 hrs by DHE staining based fluorescence microscopy; format: functional, cell-based
# [6] = Inhibition of salsolinol-induced mPTP opening in human SH-SY5Y cells assessed as fold change in fluorescence intensity at 1000 uM measured after 24 hrs by calcein AM/CoCl2 based fluorescence microscopic analysis (reference value: 0.49 +/-0.02); format: functional
# [7] = Inhibition of salsolinol-induced mitochondrial depolarization in human SH-SY5Y cells assessed as mitochondrial membrane potential at 100 uM measured after 24 hrs by JC-1 staining based flow cytometry (reference value: 45.3 +/-2.09%); format: functional; parameters: scale not given: the % may be the effect or the level left
# SH-SY5Y [8] = assay: Neuroprotective activity against salsolinol-induced neurotoxicity in human SH-SY5Y cells assessed as cell viability at 1000 uM measured after 24 hrs by calcein-AM staining based fluorescence analysis (reference value: 70.49 +/-0.51%); format: functional; conditions: read-out: Activity
# SH-SY5Y [9] = assay: Neuroprotective activity against salsolinol-induced neurotoxicity in human SH-SY5Y cells assessed as cell viability at 100 uM measured after 24 hrs by calcein-AM staining based fluorescence analysis (reference value: 70.49 +/-0.51%); format: functional; conditions: read-out: Activity
# SH-SY5Y [10] = assay: Inhibition of salsolinol-induced apoptosis in human SH-SY5Y cells assessed as appearance of necrotic cells along with early and late apoptotic cells at 1000 uM measured after 24 hrs by AO/PIstaining based fluorescence microscopy; format: functional, cell-based
# SH-SY5Y [11] = assay: Inhibition of salsolinol-induced apoptosis in human SH-SY5Y cells assessed as caspase 3/7 activity at 1000 uM incubated for 24 hrs using Ac-DEVD-AMC as substrate by fluorescence analysis (reference value: 100%); format: functional; parameters: scale not given: the % may be the effect or the level left
# SH-SY5Y [12] = assay: Neuroprotective activity against salsolinol-induced neurotoxicity in human SH-SY5Y cells assessed as cell death at 1000 uM measured after 24 hrs by PI staining based analysis (reference value: 100%); format: functional
# SH-SY5Y [13] = assay: Neuroprotective activity against salsolinol-induced neurotoxicity in human SH-SY5Y cells assessed as cell death at 100 uM measured after 24 hrs by PI staining based analysis (reference value: 100%); format: functional
# [14] = Cytotoxicity against human SH-SY5Y cells assessed as cell viability at 1000 uM measured after 24 hrs by calcein-AM staining based fluorescence analysis; conditions: read-out: Activity
# SH-SY5Y [15] = assay: Inhibition of Salsolinol-induced oxidative stress in human SH-SY5Y cells assessed as reduction in superoxide radical formation measured after 24 hrs by DHE staining based fluorescence spectrophotometry; format: functional, cell-based; conditions: dose 10-1000 µM
# SH-SY5Y [16] = assay: Inhibition of glutamate-induced oxidative stress in human SH-SY5Y cells assessed as superoxide radical formation at 10 uM measured after 4 hrs by DHE staining based fluorescence spectrophotometry (reference value: 100%); format: functional; parameters: scale not given: the % may be the effect or the level left
# SH-SY5Y [17] = assay: Inhibition of glutamate-induced oxidative stress in human SH-SY5Y cells assessed as reduction in superoxide radical formation at 10 uM measured after 4 hrs by DHE staining based fluorescence microscopy; format: functional, cell-based
# SH-SY5Y [18] = assay: Inhibition of glutamate-induced apoptosis in human SH-SY5Y cells assessed as caspase 3/7 activity at 10 uM incubated for 1 hr using Ac-DEVD-AMC as substrate by fluorescence analysis (reference value: 100%); format: functional; parameters: scale not given: the % may be the effect or the level left
# SH-SY5Y [19] = assay: Neuroprotective activity against glutamate-induced neurotoxicity in human SH-SY5Y cells assessed as cell death at 10 uM measured after 24 hrs by PI staining based assay (reference value: 100%); format: functional
# SH-SY5Y [20] = assay: Inhibition of Salsolinol-induced oxidative stress in human SH-SY5Y cells assessed as reduction in superoxide radical formation at 1 uM measured after 24 hrs by DHE staining based fluorescence microscopy; format: functional, cell-based
# SH-SY5Y [21] = assay: Inhibition of salsolinol-induced mitochondrial depolarization in human SH-SY5Y cells assessed as recovery of mitochondrial membrane potential measured after 24 hrs by JC-1 staining based flow cytometry; format: functional, cell-based
# [22] = Cytotoxicity against human SH-SY5Y cells assessed as cell viability at 1 uM measured after 24 hrs by calcein-AM staining based fluorescence analysis; conditions: read-out: Activity
# SH-SY5Y [23] = assay: Neuroprotective activity against salsolinol-induced neurotoxicity in human SH-SY5Y cells assessed as cell death at 10 uM measured after 24 hrs by PI staining based analysis (reference value: 100%); format: functional
# SH-SY5Y [24] = assay: Inhibition of Salsolinol-induced oxidative stress in human SH-SY5Y cells assessed as superoxide radical formation at 10 uM measured after 24 hrs by DHE staining based fluorescence spectrophotometry (reference value: 100%); format: functional; parameters: scale not given: the % may be the effect or the level left
# [25] = Inhibition of salsolinol-induced mPTP opening in human SH-SY5Y cells assessed as fold change in fluorescence intensity at 10 uM measured after 24 hrs by calcein AM/CoCl2 based fluorescence microscopic analysis (reference value: 0.49 +/-0.02); format: functional
# [26] = Inhibition of glutamate-induced mitochondrial depolarization in human SH-SY5Y cells assessed as mitochondrial membrane potential at 10 uM incubated for 1 hr by JC10 dye based fluorescence analysis (reference value: 31.2 +/-4.6%); format: functional; parameters: scale not given: the % may be the effect or the level left
# [27] = Cytotoxicity against human SH-SY5Y cells assessed as cell viability at 0.1 uM measured after 24 hrs by calcein-AM staining based fluorescence analysis; conditions: read-out: Activity
# SH-SY5Y [28] = assay: Inhibition of salsolinol-induced apoptosis in human SH-SY5Y cells assessed as appearance of necrotic cells along with early and late apoptotic cells at 10 uM measured after 24 hrs by AO/PIstaining based fluorescence microscopy; format: functional, cell-based
# SH-SY5Y [29] = assay: Inhibition of salsolinol-induced apoptosis in human SH-SY5Y cells assessed as caspase 3/7 activity at 1 uM incubated for 24 hrs using Ac-DEVD-AMC as substrate by fluorescence analysis (reference value: 100%); format: functional; parameters: scale not given: the % may be the effect or the level left
# SH-SY5Y [30] = assay: Neuroprotective activity against salsolinol-induced neurotoxicity in human SH-SY5Y cells assessed as cell viability at 1 uM measured after 24 hrs by calcein-AM staining based fluorescence analysis (reference value: 70.49 +/-0.51%); format: functional; conditions: read-out: Activity
# SH-SY5Y [31] = assay: Neuroprotective activity against glutamate-induced neurotoxicity in human SH-SY5Y cells assessed as reduction in cell death at 0.1 to 1 uM measured after 24 hrs by PI staining based assay; format: functional; conditions: dose 0.1-1 µM
# [32] = Inhibition of salsolinol-induced mPTP opening in human SH-SY5Y cells assessed as fold change in fluorescence intensity at 1 uM measured after 24 hrs by calcein AM/CoCl2 based fluorescence microscopic analysis (reference value: 0.49 +/-0.02); format: functional
# [33] = Inhibition of salsolinol-induced mitochondrial depolarization in human SH-SY5Y cells assessed as mitochondrial membrane potential at 10 uM measured after 24 hrs by JC-1 staining based flow cytometry (reference value: 45.3 +/-2.09%); format: functional; parameters: scale not given: the % may be the effect or the level left
# SH-SY5Y [34] = assay: Inhibition of Salsolinol-induced oxidative stress in human SH-SY5Y cells assessed as superoxide radical formation at 1 uM measured after 24 hrs by DHE staining based fluorescence spectrophotometry (reference value: 100%); format: functional; parameters: scale not given: the % may be the effect or the level left
# SH-SY5Y [35] = assay: Inhibition of salsolinol-induced apoptosis in human SH-SY5Y cells assessed as caspase 3/7 activity at 10 uM incubated for 24 hrs using Ac-DEVD-AMC as substrate by fluorescence analysis (reference value: 100%); format: functional; parameters: scale not given: the % may be the effect or the level left
# SH-SY5Y [36] = assay: Neuroprotective activity against salsolinol-induced neurotoxicity in human SH-SY5Y cells assessed as reduction in cell death at 0.1 to 1 uM measured after 24 hrs by PI staining based analysis; format: functional; conditions: dose 0.1-1 µM
compound,measurement,setting,value
CC(=O)N[C@@H](CS)C(=O)O [ACETYLCYSTEINE],"viability at 24 h, 10 µM",[1],108%
same,"viability at 24 h, 100 µM",[2],114%
same,Activity,SH-SY5Y [3],53.8%
same,Activity,[4],69.7%
same,inhibition,SH-SY5Y [5],Active
same,fold change (FC),[6],0.76
same,Activity,[7],66.4%
same,viability at 1000 µM,SH-SY5Y [8],89%
same,viability at 100 µM,SH-SY5Y [9],82.3%
same,Activity,SH-SY5Y [10],Active
same,Activity,SH-SY5Y [11],79.3%
same,Activity,SH-SY5Y [12],68.2%
same,Activity,SH-SY5Y [13],72.5%
same,"viability at 24 h, 1000 µM",[14],120%
same,inhibition,SH-SY5Y [15],Dose-Dependent Effect
CC(=O)N(O)CCCCCNC(=O)CCC(=O)N(O)CCCCCNC(=O)CCC(=O)N(O)CCCCCN [DEFEROXAMINE],Activity,SH-SY5Y [16],87.2%
same,inhibition,SH-SY5Y [17],inactive
same,Activity,SH-SY5Y [18],77.4%
same,Activity,SH-SY5Y [19],79.5%
C=C(C(=O)OCc1cn([C@@H]2O[C@H](COC(C)=O)[C@@H](OC(C)=O)[C@H](OC(C)=O)[C@H]2OC(C)=O)nn1)[C@@H]1CC[C@]2(COC(C)=O)CC[C@]3(C)[C@H](CC[C@@H]4[C@@]5(C)CC[C@H](OC(C)=O)C(C)(C)[C@@H]5CC[C@]43C)[C@@H]12,"viability at 24 h, 10 µM",[1],128%
same,inhibition,SH-SY5Y [20],Active
same,inhibition,SH-SY5Y [21],Dose-Dependent Effect
same,"viability at 24 h, 1 µM",[22],138%
same,Activity,SH-SY5Y [23],62.6%
same,Activity,SH-SY5Y [24],77.2%
same,Activity,SH-SY5Y [16],82.2%
same,fold change (FC),[25],1.2
same,Activity,[26],74.7%
same,"viability at 24 h, 0.1 µM",[27],115%
same,Activity,SH-SY5Y [28],Active
same,Activity,SH-SY5Y [29],81.8%
same,viability at 1 µM,SH-SY5Y [30],91.7%
same,Activity,SH-SY5Y [31],Active
same,fold change (FC),[32],0.75
same,Activity,[33],89.2%
same,Activity,SH-SY5Y [18],90.9%
same,Activity,SH-SY5Y [34],74.5%
same,Activity,SH-SY5Y [19],75.1%
same,Activity,SH-SY5Y [35],79.5%
C=C(Cn1cc(-c2cccnc2)nn1)[C@@H]1CC[C@]2(C(=O)O)CC[C@]3(C)[C@H](CC[C@@H]4[C@@]5(C)CC[C@H](OC(C)=O)C(C)(C)[C@@H]5CC[C@]43C)[C@@H]12,"viability at 24 h, 10 µM",[1],57.6%
same,"viability at 24 h, 1 µM",[22],124%
same,"viability at 24 h, 0.1 µM",[27],106%
same,viability at 1 µM,SH-SY5Y [30],84.3%
same,Activity,SH-SY5Y [36],inactive
C=C(C(=O)OCc1cn([C@@H]2O[C@H](COC(C)=O)[C@H](OC(C)=O)[C@H](OC(C)=O)[C@H]2OC(C)=O)nn1)[C@@H]1CC[C@]2(COC(C)=O)CC[C@]3(C)[C@H](CC[C@@H]4[C@@]5(C)CC[C@H](OC(C)=O)C(C)(C)[C@@H]5CC[C@]43C)[C@@H]12,"viability at 24 h, 10 µM",[1],130%
same,"viability at 24 h, 1 µM",[22],139%
same,Activity,SH-SY5Y [23],68.7%
same,"viability at 24 h, 0.1 µM",[27],140%
same,viability at 1 µM,SH-SY5Y [30],90.9%
CC1(C)CC[C@]23CC[C@]4(C)[C@H](CC[C@@H]5[C@@]6(C)CC(C#N)=C(O)C(C)(C)[C@@H]6CC[C@]54C)[C@H]2[C@H]1OC3,"viability at 24 h, 10 µM",[1],98.8%
same,"viability at 24 h, 1 µM",[22],93.8%
same,"viability at 24 h, 0.1 µM",[27],93.1%
